Assays:
[1] = molecular target: T1, hOR17-40 (Homo sapiens, UniProt P47881); assay: Ca2+ imaging of HEK293 cells transfected with pOR17-40; assay type: cell-based
T1 construct: pOR17-40 (Ausschnitt) mit der vollständigen cDNA von hOR17-40; expressed in transfected cells; host or cells: HEK293, plasmid pOR17-40
T1 sequence (P47881 1-315): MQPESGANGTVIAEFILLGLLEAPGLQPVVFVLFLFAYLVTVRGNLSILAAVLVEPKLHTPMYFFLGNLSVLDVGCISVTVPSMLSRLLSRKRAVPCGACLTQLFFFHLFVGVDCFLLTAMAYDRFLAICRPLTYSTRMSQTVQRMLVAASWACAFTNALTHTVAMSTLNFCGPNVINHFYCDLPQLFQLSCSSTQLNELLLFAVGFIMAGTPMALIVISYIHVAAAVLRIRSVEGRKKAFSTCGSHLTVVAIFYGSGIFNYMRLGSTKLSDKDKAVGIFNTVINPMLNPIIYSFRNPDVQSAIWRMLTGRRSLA

[2] = test system: humane Spermien; assay: Sperm activation bioassay: swimming speed by computer-assisted video motion analysis (CAVMA); assay type: cell-based, human
Procedure: Gefrorene Samenproben von fünf gesunden Spendern wurden aus der California Cryobank (Los Angeles, CA, USA) erhalten und für Bioassays gemäß den World Health Organization-Richtlinien (World Health Organization: Laboratory for the examination of human serum and semen-cervical mucus interaction, Cambridge University Press (1993)) vorbereitet. Nachdem die Suspensionen auf 37 °C für 10 Minuten gebracht worden waren, wurde jede Probe in HEPES-gepufferter humaner Tubarflüssigkeit (HTF; Irvine Scientific, Santa Ana, CA, USA) überführt und auf 10^7 Zellen/ml eingestellt. Die Lösungen wurden dann bei 37 °C in einer 5 %-igen CO2-Atmosphäre aufbewahrt und innerhalb von 30 Minuten für Experimente verwendet (P. Quinn, Journal of Assisted Reproductive Genetics 12, 97-105 (1995)). Die Reaktionen von Sperma auf Bourgeonal wurde (a) durch computer-assisted video motion analysis (CAVMA) gemessen, um Veränderungen in der Schwimmgeschwindigkeit (Spermaaktivierung) zu detektieren, und (b) in einem flat capillary-Assay für die Chemotaxis in der Nähe einer Diffusionsmaterialquelle untersucht. Für jede Test-oder Kontroll-Behandlung wurden fünf wiederholte Experimente unter Verwendung von Sperma der fünf Spender durchgeführt. Die Daten der Bioassays wurden statistisch durch Ein-Weg-Varianzanalyse (ANOVA) unter Verwendung eines post-hoc Scheffe-Tests (R. W. Day and G. P. Quinn, Ecol. Monogr. 59, 433-463 (1989)) analysiert. Eine Bonferroni-Korrektur wurde zum Angleichen der α-Levels für multiple Vergleiche verwendet.
Zur Untersuchung der Spermien-Aktivierung wurden Bioassays für die Schwimmgeschwindigkeit bei 37 °C durchgeführt. Spermien wurden sanft einer Kontroll- oder Testlösung einheitlicher Konzentration zugefügt. Die Bilder von Spermien (3,0 x 10^3 Zellen/ml) wurden dann unter Verwendung einer Videokamera (NEC Modell TI 23A), die auf einem Olympus IX70-Lichtmikroskop montiert war, bei 90-facher Vergrößerung aufgenommen. Um mögliche Artefakte durch Reibungskräfte zu minimieren, besaß die Kamera eine 100 µm Feldtiefe und fokussierte auf eine Region, die annäherend 2 mm von der nächsten Oberfläche entfernt war. Videobilder von Spermien wurden mit 30 Bildern/Sekunde digitalisiert und über 10-Sekundenintervalle unter Verwendung eines CAVMA-Systemes (Motion Analysis Corporation, Modell VP 320, Expert Vision und Benutzter-Software), verbunden mit einer Sun SPARC 2 Computer-Arbeitsstation bearbeitet (J. A. Riffell, P. J. Krug, R. K. Zimmer, Journal of Experimental Biology 205, 1439-1450 (2002)). Die Schwimmgeschwindigkeit wurde auf einer Bild-zu-Bild-Basis bestimmt und danach über jeden einzelnen zurückgelegten Weg gemittelt. Um zu vermeiden, sich horizontal anstatt vertikal bewegende Zellen zu messen, wurden kurze Wege mit weniger als 11 Bildern verworfen, bei denen sich die Spermien um mehr als 20 % in ihrer scheinbaren Größe veränderten.

[3] = test system: humane Spermien; assay: Ca2+ imaging of head and midpiece of single human spermatozoa; assay type: cell-based
Excerpt: Die Ca^2+-imaging-Experimente wurden auf dem Träger eines invertierten Zeiss-Mikroskopes durchgeführt, das für die ratiofluorometrische Bildgebung mit einer Xenon-Bogenlampe, einem Vielfach-Wellenlängen-Illuminations-System POLYCH-ROM II zur Anregung, einer gekühlten charge-coupled device (CCD)-Kamera und einer WinNT-basierten T.I.L.L.-Vision-Software zum Sammeln und raum- und zeitabhängigen Quantifizieren Ca^2+-abhängiger Fluoreszenz-Signale (F340/F380-Verhältnis) ausgestattet war. HEK293-Zellen wurden mit 32-facher, Spermazellen mit 63-facher Vergrößerung beobachtet.
HEK293- und Spermazellen wurden unter Verwendung eines speziellen Applikations-Systems, das es gestattete, vorübergehend alle Zellen im Blickfeld aus einem von sechs benutzergewählten Kapillarröhrchen zu überspülen, Geruchs- und/oder Wirkstoffen (Testlösungen) ausgesetzt. Der Wechsel zwischen den Testlösungen erfolgte nahezu sofort; auch trat im Wesentlichen keine Wirkungsverzögerung nach dem Wechsel auf, weil die Röhrchenspitzen zum optischen Feld eng benachbart waren. Zwischen den Applikationen von Testlösungen überspülte ein Pufferlösungsstrom kontinuierlich alle Zellen im Gefäß, um jedwede potentielle Hintergrund-Anreicherung von Testlösungen (Geruchs- bzw. Wirkstoffen) zu minimieren. Alle Lösungen wurden bei Raumtemperatur appliziert. Alle verwendeten Geruchsstoffe stammten von Dr. T. Gerke, Henkel KGaA, Düsseldorf, FRG, andere Wirkstoffe wurden von Sigma gekauft. Zur Zusammensetzung der Henkel 100-Mischung vergleiche C. H. Wetzel et al., Journal of Neuroscience 19, 7426-7433 (1999).
Die mögliche Rolle von hOR17-4 in einem Ca^2+-vermittelten physiologischen Prozess in humanen Spermatozoen (z.B. Acrosomreaktion, Kapazitationsprozess oder Änderungen zur hyperaktivierten Beweglichkeit) wurden durch Ca^2+-Imaging der Kopf- und der Mittelregion von einzelnen humanen Spermien untersucht. Dazu wurden frisch von jungen, gesunden Spendern erhaltene humane Spermien unverzüglich in 1,5-ml Plastikröhrchen transferiert. Nach 30 minütiger aufrechter Inkubation bei 37 °C wurden 75 µl beweglicher Spermien aus der oberen Schicht der Spermiensuspension auf Concanavalin A-beschichtete 35 mm Petrischalen transferiert und 45 Minuten lang bei Raumtemperatur in 1 ml Ladungspuffer (pH 7,4) mit 140 mM NaCl, 5 mM KCI, 2 mM CaCl2, 2 mM MgCl2, 10 mM Hepes, 10 mM Glucose, 5 µM Fura-2-AM (Molecular Probes), and 0,1 % Pluronic F-127 inkubiert. Danach wurde das Medium sanft durch Fura-2-AM-freie Pufferlösung ausgewechselt. Nicht an den Boden angeheftetes Sperma wurde durch diesen Schritt entfernt. Ca^2+-Bilder wurden von 8 bis 15 Spermatozoen in einem zufällig gewählten Sichtfeld aufgenommen. Die Fluoreszenzsignale eines Spermienkopfes und der Mittelregion wurden gemessen. […]

inhibitorischer Effekt auf das Helional-induzierte Antwortmuster ([1]; pre-incubation) | Ca^2+-Signale (hOR17-40) [1] | EC50 ([2]; Homo sapiens, Sperm, 37 °C, read-out: ED50 (Konzentration, die die halbmaximale Antwort hervorruft), Schwimmgeschwindigkeit) [nM] | SMILES | Effekt auf das Spermienverhalten, Schwimmgeschwindigkeit ([2]; 10^-7 M alone, P > 0,99) | Schwimmgeschwindigkeit als Antwort auf 10^-7 M Bourgeonal relativ zur HTF-Kontrolle ([2]; co-applied with 10^-6, 10^-7 or 10^-8 M n-Undecanal, P > 0,99) | Blockade der Ca^2+-Antworten auf Bourgeonal ([3]; co-application at same concentration as Bourgeonal, with or without pre-incubation, n = 10) | Konzentration ohne weiteren Anstieg der Schwimmgeschwindigkeit [2] | Konzentrationen mit signifikanten Antworten im Verhältnis zur HTF-Kontrolle, Schwimmgeschwindigkeit ([2]; Scheffé test P ≤ 0,03) | vorübergehende Ca^2+-Antworten, Anteil aller getesteten Spermatozoen ([3]; 5 s application, 43 of 119 spermatozoa, 12 experiments) [%] | Schwellenwert (Konzentration für Ca^2+-Antwort) ([3]; about two orders of magnitude lower than for recombinant receptor) | Effizienz (Reihenfolge der Agonisten) in Spermien ([3]; direct comparison in the same sperm)
keinen inhibitorischen Effekt | – | – | CCCCCCCCCCC=O [n-Undecanal] | keinen messbaren Effekt | nicht signifikant erhöht | blockierte vollständig | – | – | – | – | –
– | keine Ca^2+-Signale | 30 | CC(C)(C)c1ccc(CCC=O)cc1 [Bourgeonal] | – | – | – | > 10^-6 M | ≥ 10^-8 M | 36 | ≥ 10^-8 M | potentesten getesteten Liganden

From patent EP1551873B1, “AGONISTS AND ANTAGONISTS OF THE HUMAN ODORANT RECEPTOR OR17-4 AND USES THEREOF” (Symrise AG, priority 2002, dated 2004)
